In patent publication US12281149B2, “Modulators of G-protein coupled receptors” (priority 2021, dated 2025):
*1 amine or outer side, *2 acyl side, *3 side chain or, on linkers, in order; H or OH if unused. Where a SMILES comes first, the peptide text is derived from it. Side-chain parts run from the residue outwards. [ ]: non-standard residue; d: D form. The star is where a group is joined. Isobutyryl(2-(3-CN-5-F-Ph)) = CC(C)(C(=O)*)c1cc(F)cc(C#N)c1; Ala(1H-tetrazol-5-yl) = N[C@@H](Cc1nnn[nH]1)C(=O)O; C20 diacid = O=C(O)CCCCCCCCCCCCCCCCCCC(=O)*; X73 = CC(C)(C(=S)NCCC(=O)*)c1ccc(F)c(F)c1; αMePhe(2-F) = C[C@](N)(Cc1ccccc1F)C(=O)O; γGlu = O=C(O)[C@H](CCC(=O)[*:2])N[*:1]; X9 = CC(C)(C(=O)*)c1cc(F)cc(C(=O)O)c1; X27 = O=C1CC(C(=O)*)(c2ccccc2)CN1; αMeL = CC(C)C[C@](C)(N)C(=O)O; Orn = NCCC[C@H](N)C(=O)O; AEEA = NCCOCCOCC(=O)O; Aib = CC(C)(N)C(=O)O; βAla = NCCC(=O)O

What was measured:
Type in all cases: cell-based
[1] = molecular target: T1, GLP-1 receptor (Homo sapiens, UniProt P43220); assay: PathHunter β-arrestin assay, GLP-1 receptor; design: host or cells: PathHunter CHO-K1 GLP1R β-Arrestin Cell Line; settings: β-arrestin-2 recruitment, PathHunter CHO-K1 GLP1R β-Arrestin Cell Line, 90 min at 37° C.; normalized to GLP-1; read-out: GLP-1R β Arrestin EC50
T1 sequence (P43220 24-463): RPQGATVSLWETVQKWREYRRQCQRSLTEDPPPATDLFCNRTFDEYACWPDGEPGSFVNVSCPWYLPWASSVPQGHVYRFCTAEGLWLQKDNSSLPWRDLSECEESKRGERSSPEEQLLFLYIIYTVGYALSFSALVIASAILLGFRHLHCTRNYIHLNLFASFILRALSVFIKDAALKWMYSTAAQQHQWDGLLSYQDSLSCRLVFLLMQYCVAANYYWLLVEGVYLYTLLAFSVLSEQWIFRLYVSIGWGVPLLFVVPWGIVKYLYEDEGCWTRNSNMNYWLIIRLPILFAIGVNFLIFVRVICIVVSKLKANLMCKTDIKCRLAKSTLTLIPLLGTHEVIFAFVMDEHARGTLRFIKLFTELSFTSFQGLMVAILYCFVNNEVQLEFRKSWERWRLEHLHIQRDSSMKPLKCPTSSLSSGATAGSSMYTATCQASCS

[2] = molecular target: T2, GIP receptor (Homo sapiens, UniProt P48546); assay: HitHunter cAMP assay, GIP receptor; settings: for EC50: CHO cells stably expressing GIP receptor, cAMP accumulation, 30 min, read-out: EC50 GIP-1R; for Emax: CHO cells, cAMP, normalized to maximum signal from GIP (high) and DMSO (low), read-out: Emax GIP-1R
T2 sequence (P48546 22-466): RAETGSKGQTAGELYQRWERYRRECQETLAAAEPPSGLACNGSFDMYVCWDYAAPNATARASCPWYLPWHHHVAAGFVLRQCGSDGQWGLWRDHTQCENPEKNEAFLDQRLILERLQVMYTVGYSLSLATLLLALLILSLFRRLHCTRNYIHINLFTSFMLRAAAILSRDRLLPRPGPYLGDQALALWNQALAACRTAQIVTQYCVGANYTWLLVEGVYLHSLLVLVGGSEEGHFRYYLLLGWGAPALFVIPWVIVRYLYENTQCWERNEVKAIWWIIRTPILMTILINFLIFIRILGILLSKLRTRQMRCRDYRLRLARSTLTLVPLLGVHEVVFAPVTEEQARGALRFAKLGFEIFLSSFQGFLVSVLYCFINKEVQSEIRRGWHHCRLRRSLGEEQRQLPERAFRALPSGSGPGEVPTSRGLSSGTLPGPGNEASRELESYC

[3] = molecular target: T2, GIP receptor; assay: PathHunter β-arrestin assay, GIP receptor; design: host or cells: PathHunter CHO-K1 GIPR β-Arrestin Cell Line; settings: β-arrestin-2 recruitment, PathHunter CHO-K1 GIPR β-Arrestin Cell Line, 90 min at 37° C.; normalized to GIP; read-out: GIPR β Arrestin EC50
[4] = molecular target: T1, GLP-1 receptor; assay: HitHunter cAMP assay, GLP-1 receptor; settings: for EC50: CHO cells stably expressing human GLP-1 receptor, cAMP accumulation, 30 min, read-out: EC50 GLP-1R; for Emax: CHO cells, cAMP, normalized to maximum signal from GLP-1 (high) and DMSO (low), read-out: Emax GLP-1R

Structure (SMILES)	EC50 [1]	EC50 [2]	Emax [2]	EC50 [3]	EC50 [4]	Emax [4]
CC[C@H](C)[C@H](NC(=O)[C@H](CC(C)C)NC(=O)[C@H](Cc1c[nH]c2ccccc12)NC(=O)[C@H](CCC(N)=O)NC(=O)[C@@H](NC(=O)[C@H](Cc1ccccc1)NC(=O)[C@H](C)NC(=O)[C@H](CCCCNC(=O)COCCOCCNC(=O)COCCOCCNC(=O)CC[C@H](NC(=O)CCCCCCCCCCCCCCCCCCC(=O)O)C(=O)O)NC(=O)[C@H](CCC(N)=O)NC(=O)[C@H](C)NC(=O)[C@@H](NC(=O)[C@H](CCCCN)NC(=O)[C@H](CC(=O)O)NC(=O)[C@H](CC(C)C)NC(=O)C(C)(C)NC(=O)[C@@H](NC(=O)[C@H](CO)NC(=O)[C@H](Cc1ccc(O)cc1)NC(=O)[C@H](CC(=O)O)NC(=O)[C@H](CO)NC(=O)[C@@H](NC(=O)[C@H](Cc1ccccc1)NC(=O)[C@@H](NC(=O)CNC(=O)[C@H](Cc1nn[nH]n1)NC(=O)CCNC(=O)C(C)(C)c1cc(F)cc(C#N)c1)[C@@H](C)O)[C@@H](C)O)[C@@H](C)CC)[C@@H](C)CC)C(C)C)C(=O)N[C@@H](C)C(=O)NCC(=O)NCC(=O)N1CCC[C@H]1C(=O)N[C@@H](CO)C(=O)N[C@@H](CO)C(=O)NCC(=O)N[C@@H](C)C(=O)N1CCC[C@H]1C(=O)N1CCC[C@H]1C(=O)N1CCC[C@H]1C(=O)N[C@@H](CO)C(N)=O [Compound 136] ({Isobutyryl(2-(3-CN-5-F-Ph))-βAla}-[Ala(1H-tetrazol-5-yl)]GTFTSDYSI[Aib]LDKIAQK([AEEA-AEEA-γGlu-C20 diacid])AFVQWLIAGGPSSGAPPPS-NH2)	> 1000 nM	1 to 10 nM	99%	< 1000 nM	< 0.1 nM	101%
CC[C@H](C)[C@H](NC(=O)[C@H](CC(C)C)NC(=O)[C@H](Cc1c[nH]c2ccccc12)NC(=O)[C@H](CCC(N)=O)NC(=O)[C@@H](NC(=O)[C@H](Cc1ccccc1)NC(=O)[C@H](C)NC(=O)[C@H](CCCCNC(=O)COCCOCCNC(=O)COCCOCCNC(=O)CC[C@H](NC(=O)CCCCCCCCCCCCCCCCCCC(=O)O)C(=O)O)NC(=O)[C@H](CCC(N)=O)NC(=O)[C@H](C)NC(=O)[C@@H](NC(=O)[C@H](CCCCN)NC(=O)[C@H](CC(=O)O)NC(=O)[C@H](CC(C)C)NC(=O)C(C)(C)NC(=O)[C@@H](NC(=O)[C@H](CO)NC(=O)[C@H](Cc1ccc(O)cc1)NC(=O)[C@H](CC(=O)O)NC(=O)[C@H](CO)NC(=O)[C@@H](NC(=O)[C@H](Cc1ccccc1)NC(=O)[C@@H](NC(=O)CNC(=O)[C@H](CCC(=O)O)NC(=O)CCNC(=S)C(C)(C)c1ccc(F)c(F)c1)[C@@H](C)O)[C@@H](C)O)[C@@H](C)CC)[C@@H](C)CC)C(C)C)C(=O)N[C@@H](C)C(=O)NCC(=O)NCC(=O)N1CCC[C@H]1C(=O)N[C@@H](CO)C(=O)N[C@@H](CO)C(=O)NCC(=O)N[C@@H](C)C(=O)N1CCC[C@H]1C(=O)N1CCC[C@H]1C(=O)N1CCC[C@H]1C(=O)N[C@@H](CO)C(N)=O [Compound 137] (X73-EGTFTSDYSI[Aib]LDKIAQK([AEEA-AEEA-γGlu-C20 diacid])AFVQWLIAGGPSSGAPPPS-NH2)	> 1000 nM	10 to 100 nM	87%	> 1000 nM	0.1 to 1 nM	99%
CC[C@H](C)[C@H](NC(=O)[C@H](CO)NC(=O)[C@H](CCCCNC(=O)COCCOCCNC(=O)COCCOCCNC(=O)CC[C@H](NC(=O)CCCCCCCCCCCCCCCCCCC(=O)O)C(=O)O)NC(=O)[C@H](CC(=O)O)NC(=O)[C@H](CO)NC(=O)[C@@H](NC(=O)[C@](C)(Cc1ccccc1F)NC(=O)[C@@H](NC(=O)CNC(=O)[C@H](CCC(=O)O)NC(=O)CCNC(=O)C1(c2ccccc2)CNC(=O)C1)[C@@H](C)O)[C@@H](C)O)C(=O)N[C@@H](Cc1ccc(O)cc1)C(=O)N[C@@H](CC(C)C)C(=O)N[C@@H](CC(=O)O)C(=O)N[C@@H](CCCCN)C(=O)N[C@@H](CCC(N)=O)C(=O)N[C@@H](C)C(=O)N[C@@H](C)C(=O)NC(C)(C)C(=O)N[C@@H](CCC(=O)O)C(=O)N[C@@H](Cc1ccccc1)C(=O)N[C@H](C(=O)N[C@@H](CC(N)=O)C(=O)N[C@@H](Cc1c[nH]c2ccccc12)C(=O)N[C@@H](CC(C)C)C(=O)N[C@@H](CC(C)C)C(=O)N[C@@H](C)C(=O)NCC(=O)NCC(=O)N1CCC[C@H]1C(=O)N[C@@H](CO)C(=O)N[C@@H](CO)C(=O)NCC(=O)N[C@@H](C)C(=O)N1CCC[C@H]1C(=O)N1CCC[C@H]1C(=O)N1CCC[C@H]1C(=O)N[C@@H](CO)C(N)=O)C(C)C (stereo partly drawn) [Compound 138] ({X27-βAla}-EGT[αMePhe(2-F)]TSDK([AEEA-AEEA-γGlu-C20 diacid])SIYLDKQAA[Aib]EFVNWLLAGGPSSGAPPPS-NH2)	< 1000 nM	0.1 to 1 nM	100%	< 1000 nM	< 0.1 nM	100%
CC[C@H](C)[C@H](NC(=O)[C@H](CC(C)C)NC(=O)[C@H](Cc1c[nH]c2ccccc12)NC(=O)[C@H](CCC(N)=O)NC(=O)[C@@H](NC(=O)[C@H](Cc1ccccc1)NC(=O)[C@H](C)NC(=O)[C@H](CCCCNC(=O)COCCOCCNC(=O)COCCOCCNC(=O)CC[C@H](NC(=O)CCCCCCCCCCCCCCCCCCC(=O)O)C(=O)O)NC(=O)[C@H](CCC(N)=O)NC(=O)[C@H](C)NC(=O)[C@@H](NC(=O)[C@H](CCCCN)NC(=O)[C@H](CC(=O)O)NC(=O)[C@H](CC(C)C)NC(=O)C(C)(C)NC(=O)[C@@H](NC(=O)[C@H](CO)NC(=O)[C@H](Cc1ccc(O)cc1)NC(=O)[C@H](CC(=O)O)NC(=O)[C@H](CO)NC(=O)[C@@H](NC(=O)[C@H](Cc1ccccc1)NC(=O)[C@@H](NC(=O)CNC(=O)[C@H](CCC(=O)O)NC(=O)CCNC(=O)C(C)(C)c1cc(F)cc(C(=O)O)c1)[C@@H](C)O)[C@@H](C)O)[C@@H](C)CC)[C@@H](C)CC)C(C)C)C(=O)N[C@@H](C)C(=O)NCC(=O)NCC(=O)N1CCC[C@H]1C(=O)N[C@@H](CO)C(=O)N[C@@H](CO)C(=O)NCC(=O)N[C@@H](C)C(=O)N1CCC[C@H]1C(=O)N1CCC[C@H]1C(=O)N1CCC[C@H]1C(=O)N[C@@H](CO)C(N)=O [Compound 139] ({X9-βAla}-EGTFTSDYSI[Aib]LDKIAQK([AEEA-AEEA-γGlu-C20 diacid])AFVQWLIAGGPSSGAPPPS-NH2)	> 1000 nM	10 to 100 nM	109%	> 1000 nM	1 to 10 nM	102%
CC[C@H](C)[C@H](NC(=O)[C@H](CC(C)C)NC(=O)[C@H](Cc1ccc(O)cc1)NC(=O)[C@@H](CCC(=O)O)NC(=O)[C@@H](NC(=O)[C@H](Cc1ccccc1)NC(=O)[C@H](CCC(=O)O)NC(=O)C(C)(C)NC(=O)[C@H](CCC(N)=O)NC(=O)[C@H](C)NC(=O)[C@H](CCCCNC(=O)COCCOCCNC(=O)COCCOCCNC(=O)CC[C@H](NC(=O)CCCCCCCCCCCCCCCCCCC(=O)O)C(=O)O)NC(=O)[C@H](CCCN)NC(=O)[C@H](CC(=O)O)NC(=O)[C@H](CC(C)C)NC(=O)[C@](C)(CC(C)C)NC(=O)[C@@H](NC(=O)[C@H](CO)NC(=O)[C@H](Cc1ccc(O)cc1)NC(=O)[C@H](CC(=O)O)NC(=O)[C@H](CO)NC(=O)[C@@H](NC(=O)[C@](C)(Cc1ccccc1F)NC(=O)[C@@H](NC(=O)CNC(=O)[C@H](CCC(=O)O)NC(=O)CCNC(=O)C(C)(C)c1cc(F)cc(C#N)c1)[C@@H](C)O)[C@@H](C)O)[C@@H](C)CC)[C@@H](C)CC)C(=O)N[C@@H](CCC(=O)O)C(=O)NCC(=O)NCC(=O)N1CCC[C@H]1C(=O)N[C@@H](CO)C(=O)N[C@@H](CO)C(=O)NCC(=O)N[C@@H](C)C(=O)N1CCC[C@H]1C(=O)N1CCC[C@H]1C(=O)N1CCC[C@H]1C(=O)N[C@@H](CO)C(N)=O [Compound 140] ({Isobutyryl(2-(3-CN-5-F-Ph))-βAla}-EGT[αMePhe(2-F)]TSDYSI[αMeL]LD[Orn]K([AEEA-AEEA-γGlu-C20 diacid])AQ[Aib]EFI[dE]YLIEGGPSSGAPPPS-NH2)	> 1000 nM	< 0.1 nM	108%	< 1000 nM	< 0.1 nM	104%
